Laboratory results published in patent publication US8329755B2, “Methods for treating retroviral infections” (Roche Palo Alto LLC, priority 2004, dated 2012).

melting point [°C] | Compound
181.3 to 182.1 | Cc1cc(N2CC[S+]([O-])CC2)ccc1NC(=O)Cc1ccc(C)c(Oc2cc(Cl)cc(C#N)c2)c1 [Compound I-160, 2-[3-(3-Chloro-5-cyano-phenoxy)-4-methyl-phenyl]-N-[2-methyl-4-(1-oxo-1λ^4-thiomorpholin-4-yl)-phenyl]-acetamide]
259 to 261 | NS(=O)(=O)c1ccc(NC(=O)Cc2cc3c(c(C(=O)c4ccc(Cl)cc4)c2)OCC3)cc1 [Compound I-241, 2-[7-(4-Chloro-benzoyl)-2,3-dihydro-benzofuran-5-yl]-N-(4-sulfamoyl-phenyl)-acetamide]
200.5 to 203.5 | Cc1cc(S(N)(=O)=O)ccc1NC(=O)Cc1ccc(C)c(Oc2cc(Cl)ccc2Br)c1 [Compound I-31, 2-[3-(2-Bromo-5-chloro-phenoxy)-4-methyl-phenyl]-N-(2-methyl-4-sulfamoyl-phenyl)-acetamide]
209.9 to 211.5 | Cc1ccc(CC(=O)Nc2ccc(S(N)(=O)=O)cc2Cl)cc1Oc1cc(C#N)cc(C#N)c1 [Compound I-44, N-(2-Chloro-4-sulfamoyl-phenyl)-2-[3-(3,5-dicyano-phenoxy)-4-methyl-phenyl]-acetamide]
137.9 to 138.8 | Cc1ccc(CC(=O)Nc2ncccc2C)cc1Oc1cc(Cl)cc(C#N)c1 [Compound I-225, 2-[3-(3-Chloro-5-cyano-phenoxy)-4-methyl-phenyl]-N-(3-methyl-pyridin-2-yl)-acetamide]
252.3 to 254.3 | COc1ccc(CC(=O)Nc2ccc(S(N)(=O)=O)cc2)cc1Oc1cc(C#N)ccc1Cl [Compound I-65, 2-[3-(2-Chloro-5-cyano-phenoxy)-4-methoxy-phenyl]-N-(4-sulfamoyl-phenyl)-acetamide]
204 to 207 | CCc1cc(CC(=O)Nc2ccc(S(N)(=O)=O)cc2Cl)cc(Oc2cc(C#N)ccc2Cl)c1 [Compound I-107, 2-[3-(2-Chloro-5-cyano-phenoxy)-5-ethyl-phenyl]-N-(2-chloro-4-sulfamoyl-phenyl)-acetamide]
158.6 to 159.1 | Cc1ccncc1NC(=O)Cc1ccc(C)c(Oc2cc(Cl)cc(C#N)c2)c1 [Compound I-224, 2-[3-(3-Chloro-5-cyano-phenoxy)-4-methyl-phenyl]-N-(4-methyl-pyridin-3-yl)-acetamide]
107 to 110.5 | CCc1ccc(CC(=O)Nc2ccccc2Cl)cc1Oc1c(Cl)cccc1Cl [Compound I-23, N-(2-Chloro-phenyl)-2-[3-(2,6-dichloro-phenoxy)-4-ethyl-phenyl]-acetamide]
217.6 to 220.4 | CCc1ccc(CC(=O)Nc2ccc(S(N)(=O)=O)cc2C)cc1Oc1cc(C#N)cc(F)c1Cl [Compound I-50, 2-[3-(2-Chloro-5-cyano-3-fluoro-phenoxy)-4-ethyl-phenyl]-N-(2-methyl-4-sulfamoyl-phenyl)-acetamide]
227.3 to 231.4 | Cc1cc(C#N)cc(C)c1Oc1cc(CC(=O)Nc2ccc(S(N)(=O)=O)cc2)ccc1Cl [Compound I-55, 2-[4-Chloro-3-(4-cyano-2,6-dimethyl-phenoxy)-phenyl]-N-(4-sulfamoyl-phenyl)-acetamide]
110.3 to 110.5 | Cc1cc(C(=O)CN2CCOCC2)ccc1NC(=O)Cc1ccc(C)c(Oc2cc(Cl)cc(C#N)c2)c1.O=C(O)C(F)(F)F
185 to 187.9 | COc1ccc(CC(=O)Nc2ccc(S(N)(=O)=O)cc2Cl)cc1Oc1cc(C#N)cc(C(F)F)c1 [Compound I-94, N-(2-Chloro-4-sulfamoyl-phenyl)-2-[3-(3-cyano-5-difluoromethyl-phenoxy)-4-methoxy-phenyl]-acetamide]
213.9 to 214.2 | COc1ccc(CC(=O)Nc2ccc(S(N)(=O)=O)cc2)cc1Oc1cc(C#N)cc(C(F)F)c1 [Compound I-92, 2-[3-(3-Cyano-5-difluoromethyl-phenoxy)-4-methoxy-phenyl]-N-(4-sulfamoyl-phenyl)-acetamide]
133.1 to 140.7 | COCCC(=O)NS(=O)(=O)c1ccc(NC(=O)Cc2ccc(Cl)c(Oc3cc(Cl)cc(C#N)c3)c2F)c(Cl)c1.[Na]
189.1 to 189.4 | CCc1ccc(CC(=O)Nc2ccc(S(N)(=O)=O)cc2C)cc1Oc1cc(Cl)cc(C#N)c1 [Compound I-46, 2-[3-(3-Chloro-5-cyano-phenoxy)-4-ethyl-phenyl]-N-(2-methyl-4-sulfamoyl-phenyl)-acetamide]
119.9 to 122.2 | CCc1ccc(CC(=O)Nc2ccccc2Cl)cc1Oc1cc(Cl)cc(Br)c1 [Compound I-24, 2-[3-(3-Bromo-5-chloro-phenoxy)-4-ethyl-phenyl]-N-(2-chloro-phenyl)-acetamide]
190 to 193.4 | CCc1ccc(CC(=O)Nc2ccc(S(N)(=O)=O)cc2)cc1Oc1cc(Cl)ccc1Cl [Compound I-19, 2-[3-(2,5-Dichloro-phenoxy)-4-ethyl-phenyl]-N-(4-sulfamoyl-phenyl)-acetamide]
191.8 to 192.5 | CCc1ccc(CC(=O)Nc2ccc(S(N)(=O)=O)cc2Cl)cc1Oc1cc(C#N)cc(C(F)F)c1 [Compound I-140, N-(2-Chloro-4-sulfamoyl-phenyl)-2-[3-(3-cyano-5-difluoromethyl-phenoxy)-4-ethyl-phenyl]-acetamide]

melting point [°C] | Compound
159.6 to 160 | Cc1ccc(CC(=O)Nc2ccc(CC(=O)O)cc2Cl)cc1Oc1cc(Cl)cc(C#N)c1 [Compound I-236, (3-Chloro-4-{2-[3-(3-chloro-5-cyano-phenoxy)-4-methyl-phenyl]-acetylamino}-phenyl)-acetic acid]
165 to 166.6 | N#Cc1cc(Cl)cc(Oc2c(Br)ccc(CC(=O)Nc3ccc(S(N)(=O)=O)cc3Cl)c2F)c1 [Compound I-109, 2-[4-Bromo-3-(3-chloro-5-cyano-phenoxy)-2-fluoro-phenyl]-N-(2-chloro-4-sulfamoyl-phenyl)-acetamide]
192.8 to 194.1 | Cc1cc(S(N)(=O)=O)ccc1NC(=O)Cc1ccc(C)c(Oc2cc(Cl)cc(C#N)c2)c1 [Compound I-122, 2-[3-(3-Chloro-5-cyano-phenoxy)-4-methyl-phenyl]-N-(2-methyl-4-sulfamoyl-phenyl)-acetamide]
133.9 to 135.9 | Cc1ccc(CC(=O)Nc2ccccc2Cl)cc1Oc1cc(Cl)ccc1Br [Compound I-33, 2-[3-(2-Bromo-5-chloro-phenoxy)-4-methyl-phenyl]-N-(2-chloro-phenyl)-acetamide]
144 to 147 | N#Cc1cc(Oc2c(F)c(CC(=O)Nc3ccc(S(N)(=O)=O)cc3)cc(Br)c2Br)cc(C(F)F)c1 [Compound I-114, 2-[4,5-Dibromo-3-(3-cyano-5-difluoromethyl-phenoxy)-2-fluoro-phenyl]-N-(4-sulfamoyl-phenyl)-acetamide]
222.5 to 224 | CC(=O)Nc1cc(C)c(NC(=O)Cc2ccc(C)c(Oc3cc(Cl)cc(C#N)c3)c2)cn1 [Compound I-228, N-(6-Acetylamino-4-methyl-pyridin-3-yl)-2-[3-(3-chloro-5-cyano-phenoxy)-4-methyl-phenyl]-acetamide]
175.1 to 177.5 | Cc1ccc(CC(=O)Nc2ccccc2Cl)cc1Oc1cc(C#N)cc(C#N)c1 [Compound I-34, N-(2-Chloro-phenyl)-2-[3-(3,5-dicyano-phenoxy)-4-methyl-phenyl]-acetamide]
110 to 111.5 | CCc1ccc(CC(=O)Nc2ccccc2Cl)cc1Oc1cc(C#N)cc(C#N)c1Cl [Compound I-60, 2-[3-(2-Chloro-3,5-dicyano-phenoxy)-4-ethyl-phenyl]-N-(2-chloro-phenyl)-acetamide]
158.8 to 162 | CCC(=O)NS(=O)(=O)c1ccc(NC(=O)Cc2ccc(C)c(Oc3cc(Cl)cc(C#N)c3)c2F)c(Cl)c1.[Na]
235.9 to 236.7 | Cc1cc(CC(=O)Nc2ccc(S(N)(=O)=O)cc2)cc(Oc2cc(C#N)ccc2Cl)c1 [Compound I-146, 2-[3-(2-Chloro-5-cyano-phenoxy)-5-methyl-phenyl]-N-(4-sulfamoyl-phenyl)-acetamide]
183.9 to 185.2 | Cc1cc(CC(=O)Nc2ccc(S(N)(=O)=O)cc2)cc(Oc2cc(Cl)cc(C#N)c2)c1 [Compound I-141, 2-[3-(3-Chloro-5-cyano-phenoxy)-5-methyl-phenyl]-N-(4-sulfamoyl-phenyl)-acetamide]
214.9 to 218.8 | Cc1cc(S(N)(=O)=O)ccc1NC(=O)Cc1ccc(Cl)c(C(=O)c2cc(Cl)ccc2Cl)c1 [Compound I-249, 2-[4-Chloro-3-(2,5-dichloro-benzoyl)-phenyl]-N-(2-methyl-4-sulfamoyl-phenyl)-acetamide]
239.6 to 240.7 | CCc1ccc(CC(=O)Nc2ccc(S(N)(=O)=O)cc2Cl)c(F)c1Oc1cc(C#N)cc(C(F)F)c1 [Compound I-179, N-(2-Chloro-4-sulfamoyl-phenyl)-2-[3-(3-cyano-5-difluoromethyl-phenoxy)-4-ethyl-2-fluoro-phenyl]-acetamide]
177 to 177.9 | COc1ccc(CC(=O)Nc2ccc(S(N)(=O)=O)cc2C)cc1C(=O)c1cc(Br)ccc1Cl [Compound I-264, 2-[3-(5-Bromo-2-chloro-benzoyl)-4-methoxy-phenyl]-N-(2-methyl-4-sulfamoyl-phenyl)-acetamide]
183.9 to 185.1 | Cc1cc(C#N)cc(C)c1Oc1cc(CC(=O)Nc2ccccc2Cl)ccc1Cl [Compound I-68, 2-[4-Chloro-3-(4-cyano-2,6-dimethyl-phenoxy)-phenyl]-N-(2-chloro-phenyl)-acetamide]
195.6 to 197 | CC(C)CCC(=O)NS(=O)(=O)c1ccc(NC(=O)Cc2ccc(Cl)c(Oc3cc(Cl)cc(C#N)c3)c2F)c(Cl)c1.[Na]
155.6 to 159 | Cc1cc(NC(=O)Cc2ccc(C)c(Oc3cc(Cl)cc(C#N)c3)c2)n(C)n1 [Compound I-226, 2-[3-(3-Chloro-5-cyano-phenoxy)-4-methyl-phenyl]-N-(2,5-dimethyl-2H-pyrazol-3-yl)-acetamide]
186.1 to 188 | Cc1cc(S(=O)(=O)CCC#N)ccc1NC(=O)Cc1ccc(C)c(Oc2cc(Cl)cc(C#N)c2)c1 [Compound I-137, 2-[3-(3-Chloro-5-cyano-phenoxy)-4-methyl-phenyl]-N-[4-(2-cyano-ethanesulfonyl)-2-methyl-phenyl]-acetamide]
